# According to US20090238808A1, “Process for the identification of novel enzyme interacting compounds” (priority 2005, published 2009):
# Assays:
# [1] = biological target: T1, MER (Homo sapiens, UniProt Q12866); assay: Biochemical kinase activity assay (Invitrogen SelectScreen); conditions: read-out: % inhibition, MER
# T1 sequence (Q12866 21-999): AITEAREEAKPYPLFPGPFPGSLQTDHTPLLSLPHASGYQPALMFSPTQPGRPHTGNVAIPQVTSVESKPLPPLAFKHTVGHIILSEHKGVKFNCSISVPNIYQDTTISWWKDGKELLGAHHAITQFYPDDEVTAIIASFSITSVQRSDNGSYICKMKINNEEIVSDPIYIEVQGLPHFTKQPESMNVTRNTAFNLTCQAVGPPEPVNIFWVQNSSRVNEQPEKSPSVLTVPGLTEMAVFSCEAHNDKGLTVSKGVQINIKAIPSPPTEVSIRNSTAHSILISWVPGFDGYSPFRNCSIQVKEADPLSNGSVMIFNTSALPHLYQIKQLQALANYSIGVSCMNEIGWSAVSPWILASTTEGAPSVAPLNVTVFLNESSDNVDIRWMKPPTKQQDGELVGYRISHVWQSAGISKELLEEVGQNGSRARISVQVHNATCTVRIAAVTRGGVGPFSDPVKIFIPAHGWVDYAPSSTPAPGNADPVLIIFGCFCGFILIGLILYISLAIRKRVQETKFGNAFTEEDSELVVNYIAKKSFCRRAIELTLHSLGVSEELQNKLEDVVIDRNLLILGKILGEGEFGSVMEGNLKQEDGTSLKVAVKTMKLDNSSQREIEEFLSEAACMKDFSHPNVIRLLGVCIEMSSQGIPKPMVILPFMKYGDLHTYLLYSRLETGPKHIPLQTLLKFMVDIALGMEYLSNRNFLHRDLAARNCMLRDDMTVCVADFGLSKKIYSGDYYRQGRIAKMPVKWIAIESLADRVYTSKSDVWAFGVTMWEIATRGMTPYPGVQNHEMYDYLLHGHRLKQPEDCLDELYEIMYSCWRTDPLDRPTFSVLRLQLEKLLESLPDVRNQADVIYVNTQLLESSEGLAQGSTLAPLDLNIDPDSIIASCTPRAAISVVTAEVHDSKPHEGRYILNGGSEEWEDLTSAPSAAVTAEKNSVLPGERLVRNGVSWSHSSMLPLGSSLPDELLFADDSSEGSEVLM
# [2] = biological target: BTK (Homo sapiens, UniProt Q06187); assay: as above; conditions: read-out: % inhibition, BTK
# BTK, sequence (Q06187 whole entry): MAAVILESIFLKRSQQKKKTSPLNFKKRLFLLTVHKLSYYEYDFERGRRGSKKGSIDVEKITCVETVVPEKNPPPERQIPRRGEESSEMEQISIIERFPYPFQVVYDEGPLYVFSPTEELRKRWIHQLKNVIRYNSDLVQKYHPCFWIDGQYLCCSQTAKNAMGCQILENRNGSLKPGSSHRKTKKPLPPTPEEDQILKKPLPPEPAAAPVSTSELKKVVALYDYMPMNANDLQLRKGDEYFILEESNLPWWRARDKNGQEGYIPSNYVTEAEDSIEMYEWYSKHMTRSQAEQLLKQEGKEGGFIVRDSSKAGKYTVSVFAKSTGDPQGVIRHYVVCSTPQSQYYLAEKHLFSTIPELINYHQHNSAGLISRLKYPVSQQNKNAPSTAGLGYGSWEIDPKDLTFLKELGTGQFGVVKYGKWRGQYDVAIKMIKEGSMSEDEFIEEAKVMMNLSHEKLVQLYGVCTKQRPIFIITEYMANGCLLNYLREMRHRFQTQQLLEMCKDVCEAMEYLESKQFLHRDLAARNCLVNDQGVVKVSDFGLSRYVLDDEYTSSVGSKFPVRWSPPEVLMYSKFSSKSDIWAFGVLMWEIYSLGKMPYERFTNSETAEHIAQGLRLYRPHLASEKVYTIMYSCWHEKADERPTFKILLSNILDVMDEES
# [3] = biological target: FAK/PTK2 (Homo sapiens, UniProt Q05397); assay: as above; conditions: read-out: % inhibition, FAK
# FAK/PTK2, sequence (Q05397 whole entry): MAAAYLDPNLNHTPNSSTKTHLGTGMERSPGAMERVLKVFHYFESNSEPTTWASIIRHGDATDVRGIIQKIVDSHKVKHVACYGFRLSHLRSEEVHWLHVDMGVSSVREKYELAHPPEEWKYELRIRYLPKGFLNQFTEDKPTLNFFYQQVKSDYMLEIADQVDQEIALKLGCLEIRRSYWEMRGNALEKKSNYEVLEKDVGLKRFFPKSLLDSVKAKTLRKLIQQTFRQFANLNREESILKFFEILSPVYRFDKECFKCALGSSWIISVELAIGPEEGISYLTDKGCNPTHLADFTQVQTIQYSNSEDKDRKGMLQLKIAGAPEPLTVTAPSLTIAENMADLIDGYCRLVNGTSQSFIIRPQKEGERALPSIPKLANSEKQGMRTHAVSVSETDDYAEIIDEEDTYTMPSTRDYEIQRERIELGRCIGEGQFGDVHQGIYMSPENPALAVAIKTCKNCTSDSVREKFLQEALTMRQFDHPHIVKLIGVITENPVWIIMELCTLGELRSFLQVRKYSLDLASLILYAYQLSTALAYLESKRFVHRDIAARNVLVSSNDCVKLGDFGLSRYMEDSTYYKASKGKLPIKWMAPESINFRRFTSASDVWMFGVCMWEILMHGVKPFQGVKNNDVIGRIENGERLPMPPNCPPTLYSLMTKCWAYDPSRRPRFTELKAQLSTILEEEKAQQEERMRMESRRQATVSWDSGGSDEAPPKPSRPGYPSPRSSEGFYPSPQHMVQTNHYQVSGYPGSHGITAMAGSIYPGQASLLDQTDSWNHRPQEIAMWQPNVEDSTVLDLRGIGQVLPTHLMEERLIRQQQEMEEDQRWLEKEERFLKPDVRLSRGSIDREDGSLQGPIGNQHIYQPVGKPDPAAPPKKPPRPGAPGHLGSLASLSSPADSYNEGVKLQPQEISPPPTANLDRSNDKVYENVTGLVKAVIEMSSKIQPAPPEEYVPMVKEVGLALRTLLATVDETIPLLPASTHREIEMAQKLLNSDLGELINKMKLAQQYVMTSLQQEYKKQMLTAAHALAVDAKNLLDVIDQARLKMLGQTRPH
# [4] = biological target: EphB4 (Homo sapiens, UniProt P54760); assay: as above; conditions: read-out: % inhibition, EphB4
# EphB4, sequence (P54760 16-987): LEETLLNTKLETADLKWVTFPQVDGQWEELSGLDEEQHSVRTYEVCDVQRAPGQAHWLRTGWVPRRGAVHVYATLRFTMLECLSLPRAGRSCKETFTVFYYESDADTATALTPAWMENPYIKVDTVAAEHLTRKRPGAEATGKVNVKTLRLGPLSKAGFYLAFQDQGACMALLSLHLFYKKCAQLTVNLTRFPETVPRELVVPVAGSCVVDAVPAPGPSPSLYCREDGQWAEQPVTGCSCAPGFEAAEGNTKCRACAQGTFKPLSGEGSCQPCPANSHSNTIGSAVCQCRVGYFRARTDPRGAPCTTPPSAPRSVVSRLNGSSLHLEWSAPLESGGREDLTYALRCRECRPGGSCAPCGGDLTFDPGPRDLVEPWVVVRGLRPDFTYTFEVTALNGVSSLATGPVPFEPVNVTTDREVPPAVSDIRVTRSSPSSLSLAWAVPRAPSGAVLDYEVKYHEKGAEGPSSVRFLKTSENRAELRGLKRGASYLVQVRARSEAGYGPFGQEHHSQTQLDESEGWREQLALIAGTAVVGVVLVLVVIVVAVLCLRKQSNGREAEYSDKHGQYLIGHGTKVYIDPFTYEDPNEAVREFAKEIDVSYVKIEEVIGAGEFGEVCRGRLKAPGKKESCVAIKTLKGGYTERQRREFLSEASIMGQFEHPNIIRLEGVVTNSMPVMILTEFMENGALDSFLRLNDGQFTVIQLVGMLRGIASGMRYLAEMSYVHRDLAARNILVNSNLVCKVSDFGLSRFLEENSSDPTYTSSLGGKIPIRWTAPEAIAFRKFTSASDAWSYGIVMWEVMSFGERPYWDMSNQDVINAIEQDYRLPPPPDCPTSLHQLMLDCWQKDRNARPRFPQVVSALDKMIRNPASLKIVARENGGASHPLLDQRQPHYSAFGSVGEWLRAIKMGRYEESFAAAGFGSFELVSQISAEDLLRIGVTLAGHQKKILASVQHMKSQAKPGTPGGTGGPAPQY
# [5] = biological target: KHS1 (Homo sapiens, UniProt Q9Y4K4); assay: as above; conditions: read-out: % inhibition, KHS1
# KHS1, sequence (Q9Y4K4 whole entry): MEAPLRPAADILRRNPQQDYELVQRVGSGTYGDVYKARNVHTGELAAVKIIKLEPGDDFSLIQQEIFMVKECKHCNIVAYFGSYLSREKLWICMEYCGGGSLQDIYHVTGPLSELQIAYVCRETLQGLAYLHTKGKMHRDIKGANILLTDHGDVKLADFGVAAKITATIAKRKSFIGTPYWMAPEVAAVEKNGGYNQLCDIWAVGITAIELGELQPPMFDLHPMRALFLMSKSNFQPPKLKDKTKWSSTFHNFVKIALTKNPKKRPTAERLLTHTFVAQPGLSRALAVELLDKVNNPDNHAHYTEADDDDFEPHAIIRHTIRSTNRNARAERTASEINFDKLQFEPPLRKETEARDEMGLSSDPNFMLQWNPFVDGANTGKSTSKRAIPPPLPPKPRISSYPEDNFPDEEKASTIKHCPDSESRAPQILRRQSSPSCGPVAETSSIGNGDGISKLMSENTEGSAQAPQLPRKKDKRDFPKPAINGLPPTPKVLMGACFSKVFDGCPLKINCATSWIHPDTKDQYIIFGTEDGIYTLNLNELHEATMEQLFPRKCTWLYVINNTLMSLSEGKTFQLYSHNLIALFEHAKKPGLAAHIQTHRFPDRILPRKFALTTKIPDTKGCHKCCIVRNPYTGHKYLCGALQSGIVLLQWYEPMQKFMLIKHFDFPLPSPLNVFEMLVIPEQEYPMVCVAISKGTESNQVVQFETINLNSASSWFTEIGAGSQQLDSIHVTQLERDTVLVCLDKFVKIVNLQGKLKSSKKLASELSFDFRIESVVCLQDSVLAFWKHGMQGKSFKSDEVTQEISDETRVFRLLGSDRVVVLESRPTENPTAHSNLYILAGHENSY
# [6] = test system: phosphorylation sites on kinobeads-captured proteins, K562 cells; assay: Phosphorylation analysis of kinobeads-captured proteins from drug-treated K562 cells; type: cell-based, human; conditions: of 379 sites on 136 proteins identified
# Description: To explore not only the direct targets of the drugs but also their downstream effects on signaling pathways, aliquots of the iTRAQ-labeled peptide mixtures from kinobeads precipitates were subjected to phosphopeptide enrichment and subsequent identification and quantification by mass spectrometry. […] Indeed, most of these proteins have been implicated in signaling events downstream of ABL (FIG. 10b)^16, 18. For all three drugs together, we found down-regulation of 20 sites on 13 proteins (FIGS. 22 and 23).
# Mass Spectrometry and Data analysis.
# LC-MS/MS for IMAC samples were performed twice.
# [7] = biological target: GCK (Homo sapiens, UniProt Q12851); assay: Biochemical kinase activity assay (Invitrogen SelectScreen); conditions: read-out: % inhibition, GCK
# GCK, sequence (Q12851 whole entry): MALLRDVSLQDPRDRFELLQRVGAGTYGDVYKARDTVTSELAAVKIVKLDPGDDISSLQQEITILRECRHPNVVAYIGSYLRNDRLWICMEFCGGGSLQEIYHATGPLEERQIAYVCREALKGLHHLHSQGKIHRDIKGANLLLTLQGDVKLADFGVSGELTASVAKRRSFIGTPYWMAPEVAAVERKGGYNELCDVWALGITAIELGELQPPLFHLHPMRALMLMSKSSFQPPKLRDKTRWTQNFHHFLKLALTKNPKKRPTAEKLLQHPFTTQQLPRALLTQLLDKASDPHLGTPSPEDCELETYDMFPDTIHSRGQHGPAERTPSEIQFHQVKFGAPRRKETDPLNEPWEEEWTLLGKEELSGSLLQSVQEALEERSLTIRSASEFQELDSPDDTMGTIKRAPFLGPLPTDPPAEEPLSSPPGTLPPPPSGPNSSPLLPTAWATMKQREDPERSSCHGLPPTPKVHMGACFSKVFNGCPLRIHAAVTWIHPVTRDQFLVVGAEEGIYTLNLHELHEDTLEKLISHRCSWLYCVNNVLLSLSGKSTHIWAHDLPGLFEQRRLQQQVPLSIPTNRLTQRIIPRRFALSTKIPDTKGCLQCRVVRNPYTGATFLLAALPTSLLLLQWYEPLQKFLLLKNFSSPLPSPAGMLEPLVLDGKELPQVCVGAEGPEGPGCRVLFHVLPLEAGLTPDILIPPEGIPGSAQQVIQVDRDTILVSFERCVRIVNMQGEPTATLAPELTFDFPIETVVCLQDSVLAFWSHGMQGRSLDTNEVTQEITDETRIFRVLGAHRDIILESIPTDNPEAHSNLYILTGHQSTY
# [8] = biological target: FER (Homo sapiens, UniProt P16591); assay: as above; conditions: read-out: % inhibition, FER
smiles,measurement,setting,value
Cc1ccc(NC(=O)c2ccc(CN3CCN(C)CC3)cc2)cc1Nc1nccc(-c2cccnc2)n1 [imatinib],inhibition at 5 µM,[1],11%
same,inhibition at 5 µM,[2],4%
same,inhibition at 5 µM,[3],2%
same,inhibition at 5 µM,[4],5%
same,inhibition at 5 µM,[5],14%
same,number of phosphorylation sites with substantial down-regulation,[6],Eight
same,inhibition at 5 µM,[7],10%
same,inhibition at 5 µM,[8],14%
